In patent US5910502A, “Use of levobupivacaine in paediatric surgery” (priority 1997, dated 1999):
Counter-ions that a name gives are not always drawn.

Legend:
[1] = tested on: tk locus (5-trifluorothymidine resistance) in mouse lymphoma cells; experiment: Mutation at the tk locus (5-trifluorothymidine resistance) in mouse lymphoma cells, fluctuation protocol, with and without S-9
Procedure: (§1) More specifically, levobupivacaine HCl was assayed for its ability to induce mutation at the tk locus (5-trifluorothymidine resistance) in mouse lymphoma cells using a fluctuation protocol. The study consisted of a cytotoxicity range-finder followed by two independent experiments, each conducted in the absence and presence of metabolic activation by an Aroclor 1254-induced rat liver post-mitochondrial fraction (S-9). For reference, bupivacaine HCl was tested concurrently in the cytotoxicity range-finder.
For reference, three doses of bupivacaine HCl were tested in the absence of S-9 (250, 500 and 750 μg/ml), and two doses in the presence of S-9 (250, 500 μg/ml). The lowest five doses of levobupivacaine HCl and all reference doses of bupivacaine HCl were selected to determined viability and 5-trifluorothymidine resistance, 2 days after treatment.
In the second experiment, the dose range was modified slightly for both levobupivacaine HCl and bupivacaine HCl.
Negative (solvent) and positive control treatments were included in each mutation experiment in the absence and presence of S-9.

[2] = tested on: heart; central nervous system (CNS); settings: cited from earlier work
[3] = tested on: children having outpatient herniorrhaphy; experiment: Double-blind randomized placebo-controlled clinical study: IlIH nerve block in children having outpatient herniorrhaphy; type: in vivo, human (children ages 6 mo to 12 y)
Procedure: In a clinical study, the suitability of levobupivacaine in paediatric surgery was evaluated. This was a double-blind randomized, placebo-controlled study, to determine the safety and effectiveness of levobupivacaine for field block in children having outpatient herniorrhaphy. More specifically, otherwise healthy children ages 6 mo to 12 y presenting for outpatient herniorrhaphy were randomized to receive either ilioinguinal/iliohytpogastric (IlIH) nerve block(s) with 0.25 ml/kg 0.5% levobupivacaine per side operated, or no block, at the completion of surgery.

[4] = tested on: patients requiring hernia repair; experiment: Further study in patients requiring hernia repair: rescue analgesia; type: in vivo, human
Procedure: In a further study, using levobupivacaine in patients requiring hernia repair, 45% of patients in the 0.5% levobupivacaine group compared with 73.3% of patients in the no block required at least one dose of rescue analgesia (p=0.167). The majority of the children who required rescue (91.4%) required two or fewer doses of rescue analgesia. […] The median patient in the 0.5% levobupivacaine group first requested rescue medication after at least 118 minutes, compared with 31 minutes in the no block group (p=0.041).

heart = settings: in vitro; Vanhoutte et al 1991, Denson et al 1992; cited from earlier work
[5] = Cytotoxicity range-finder (relative survival), with and without S-9; type: cell-based, mouse; settings: mouse
Procedure: as §1
(§2) A wide range of concentrations were selected for the cytotoxicity range-finder experiments, separated by two-fold intervals and ranging from 31.25 to 1000 μg/ml for levobupivacaine HCl and from 62.5 to 2000 μg/ml for bupivacaine HCl (limited by solubility in both cases).

mouse lymphoma cells = experiment: as above; type: cell-based
Procedure: as §1, §2

[6] = 0.25 ml/kg 0.5% per side operated, vs no block

SMILES: c1ccc2c(c1)cc1ccc3cccc4ccc2c1c34 [benzo[a]pyrene]
- mutation, positive control ([1]; with S-9): clear increases in mutation

SMILES: CCCCN1CCCCC1C(=O)Nc1c(C)cccc1C (racemic) [bupivacaine]
- dosage limitation by cytotoxicity, summary [1]: limited by cytotoxicity
- genotoxicity, summary [1]: positive for genotoxicity
- CNS side-effects (in words) ([2]; at higher doses): undesirable central nervous system (CNS) side-effects
- cardiotoxicity (in words) ([2]; background): cardiotoxic, having depressant electrophysiological and mechanical effects on the heart
- death in patients (in words) ([2]; including women in childbirth and Bier's block): produced death in a number of patients

SMILES: CCCCN1CCCC[C@H]1C(=O)Nc1c(C)cccc1C [levobupivacaine, (S)-1-butyl-N-(2,6-dimethylphenyl)-2-piperidinecarboxamide]
- genotoxicity, summary [1]: completely negative
- safety and effectiveness for IlIH block, conclusion ([3]; 0.25 ml/kg 0.5% levobupivacaine per side operated): safe and effective
- adverse events specifically attributable to levobupivacaine ([3]; 0.25 ml/kg 0.5% per side operated): absence of any adverse events
- interval to rescue analgesia [3, 6]: longer interval to rescue analgesia
- rescue analgesic doses [3, 6]: fewer rescue analgesic doses
- CHEOPS ([3]; at 15, 20, 30 and 60 min, 0.25 ml/kg 0.5% per side operated, vs no block): lower CHEOPS
- time to first request for rescue medication (in words) ([4]; 0.5% levobupivacaine group vs no block group): significantly longer
- patients requiring at least one dose of rescue analgesia ([4]; 0.5% levobupivacaine group, no block 73.3%, p=0.167): 45%
- median time to first request for rescue medication ([4]; 0.5% levobupivacaine group, no block 31 minutes, p=0.041): at least 118 minutes
- cardiotoxicity relative to dextrobupivacaine and racemic bupivacaine (heart): less cardiotoxic than dextrobupivacaine and racemic bupivacaine

SMILES: CCCCN1CCCCC1C(=O)Nc1c(C)cccc1C (stereo not drawn) [bupivacaine HCl]
- viability ([5]; absence of S-9, 500 μg/ml): 100%
- viability ([5]; presence of S-9, 500 μg/ml): 12.4%
- cytotoxicity (in words) (mouse lymphoma cells; bupivacaine HCl (reference), top two doses, 1000 and 2000 μg/ml): completely toxic

SMILES: CCCCN1CCCC[C@H]1C(=O)Nc1c(C)cccc1C [levobupivacaine HCl]
- viability ([5]; absence of S-9, 1000 μg/ml): 150%
- viability ([5]; presence of S-9, 1000 μg/ml): 9.1%
- cell survival (in words) (mouse lymphoma cells; 31.25 to 1000 μg/ml, absence and presence of S-9): Cells survived all doses
- mutagenicity, overall conclusion [1]: not mutagenic

SMILES: O=[N+]([O-])c1cc[n+]([O-])c2ccccc12 [4-nitroquinoline 1-oxide]
- mutation, positive control ([1]; without S-9): clear increases in mutation
